US4456752A, “Process for the preparation of 9-hydrazono-6,7,8,9-tetrahydro-4H-pyro[1,2-a]pyrimidine-4-one compounds, the salts and hydrates thereof” (Chinoin Gyogyszer es Vegyeszeti Termekek Gyara R.T., priority 1979, dated 1984)

What was measured:
[1] = tested on: allergic reactions induced by the antigen-antibody interaction; assay: PCA test (Ovary), antiallergic activity on rats; format: in vivo; details: for ED50: Rattus norvegicus, iv, rats
Procedure: The test is carried out by the PCA test-method (Ovary: J. Immun. 81, 355, 1958) and the Church-test (British J. Pharm. 46, 56-66, 1972; Immunology 29, 527-534, 1975) and as a reference substance disodium chromoglycate is used. The test was carried out on rats.

[2] = tested on: allergic symptoms; details: oral / inhaler; background statement; cited from earlier work

Compound | ED50 [1] | oral activity (PCA test data, in words) ([1]; oral versus i.v.) | effectiveness by route (antiasthmatic agent, in words) [2]
CCOc1ccc(NN=C2CCC(C)n3c2ncc(C(=O)O)c3=O)cc1 (racemic) [(±)-9-(4-ethoxyphenyl-hydrazono)-6-methyl-4-oxo-6,7,8,9-tetrahydro-4H--pyrido[1,2-a]pyrimidine-3-carboxylic acid] | 0.87 µmol/kg | – | –
Cc1cccc(NN=C2CCC(C)n3c2ncc(C(=O)O)c3=O)c1 (centres unmarked) [6-methyl-9-(3-methylphenyl-hydrazono)-4-oxo-6,7,8,9-tetrahydro-4H--pyrido[1,2-a]-pyrimidine-3-carboxylic acid] | 0.42 µmol/kg | – | –
CC1CCC(=NNc2cccc([N+](=O)[O-])c2)c2ncc(C(=O)O)c(=O)n21 (centres unmarked) [6-methyl-9-(3-nitrophenyl-hydrazono-4-oxo-6,7,8,9-tetrahydro-4H--pyrido[1,2-a]-pyrimidine-3-carboxylic acid] | 0.52 µmol/kg | – | –
CC1CCC(=NNc2cccc(Cl)c2)c2ncc(C(=O)O)c(=O)n21 (centres unmarked) [9-(3-chlorophenylhydrazono)-6-methyl-4-oxo-6,7,8,9-tetrahydro-4H--pyrido[1,2-a]-pyrimidine-3-carboxylic acid] | 0.61 µmol/kg | – | –
CC1CCC(=NNc2ccc(Br)cc2)c2ncc(C(=O)O)c(=O)n21 (centres unmarked) [9-(4-bromophenylhydrazono)-6-methyl-4-oxo-6,7,8,9-tetrahydro-4H--pyrido[1,2-a]-pyrimidine-3-carboxylic acid] | 0.82 µmol/kg | – | –
CC1CCC(=NNc2ccc(C(=O)O)cc2)c2ncc(C(=O)O)c(=O)n21 (centres unmarked) [9-(4-carboxyphenyl-hydrazono)-6-methyl-4-oxo-6,7,8,9-tetrahydro-4H--pyrido[1,2-a]pyrimidine-3-carboxylic acid] | 7.6 µmol/kg | – | –
O=C(O)c1cc(=O)c2c(OCC(O)COc3cccc4oc(C(=O)O)cc(=O)c34)cccc2o1 [Disodium chromoglycate, 1,3-bis-(2-carboxychromon-6-yl-ox)-2-hydroxypropane, reference compound] | – | effective only when administered intravenously | not effective orally and it produces the desired effect only by using an inhaler
